Source: US6903125B2, “Tetrahydro-2H-thiopyran-4-carboxamide derivative” (Yamanouchi Pharmaceutical Co., Ltd., priority 2003, dated 2005)
Read-outs that look alike come from different tables or passages of the source.

Tests used:
HSV-1 (strain KOS) = assay: Anti-HSV-1 activity assay (MTT, MRC-5 cells); type: cell-based; settings: HSV-1 strain KOS in MRC-5 cells, 5 days culture, read-out: EC50 value (suppression of cellular death of MRC-5 cells via HSV-1 replication)
Procedure: 10,000 MRC-5 cells were inoculated and cultured in a 96-well microtiter plate, using the growth culture medium in 5% CO2 at 37° C. for 4 to 5 days until a monolayer was formed. After the cells were washed with the maintenance culture medium, 100 μl of the maintenance culture medium dissolving therein an appropriate concentration of a test reagent was added to each well. Immediately after the test drug was added, an HSV-1 (strain KOS) solution was inoculated at 50 TCID50 (50% tissue culture infectious dose)/100 μl. After the cells were cultured in 5% CO2 at 37° C. for 5 days, 20 μl of MTT solution [3-(4,5-dimethyl-2-thiazolyl)-2,5-diphenyl-2H-tetrazolium bromide; Sigma] (diluted with PBS to 7.5 mg/ml) was added to each well, for another 24-hour incubation. After the culture medium was discarded, 100 μl of a solvent (prepared by adding 10% (v/v) Triton X 100 and 0.4% hydrochloric acid to isopropanol) was added to each well, to solubilize the generated formazan. The absorbance at 540 nm or 690 nm was measured with a microplate reader. Based on the suppression ratio (%) of the cellular death of the MRC-5 cell via HSV-1 replication, the EC50 value of the test drug was calculated.

VZV (strain CaQu) = assay: Anti-VZV activity assay (plaque reduction in HEF cells); type: cell-based, varicella zoster virus
Procedure: This experiment was carried out based on the method described by Shigeta S., The Journal of Infectious Diseases, 147, 3, 576-584 (1983). Briefly, 10,000 human embryonic fibroblast (HEF) cells were inoculated in a 96-well microtiter plate, using a growth culture medium [Eagle MEM (Nissui) supplemented with 10% (v/v) fetal bovine serum (FBS; Sigma)], for culturing in 5% CO2 at 37° C. for 4 days until a monolayer was formed. After the cells were washed with a maintenance culture medium (MEM supplemented with 2% FBS), VZV (strain CaQu) preliminarily diluted to 20 to 30 pfu/100 μl with the maintenance culture medium was inoculated at 100 μl/well. The plate was centrifuged at 2,000 rpm at ambient temperature for 20 minutes and was then incubated in 5% CO2 at 37° C. for 3 hours, for infection with VZV. After the plate was washed three times with the maintenance culture medium, 100 μl of a test drug diluted to an appropriate concentration with the maintenance culture medium was added to each well. After the cells were cultured in 5% CO2 at 37° C. for 3 to 4 days, 10% formalin/PBS was added at 100 μl/well to fix the cells for 2 to 3 hours. After discarding the fixing solution and culture supernatant and subsequently washing the plate with water, a staining solution (0.025% Crystal Violet) was added at 50 μl/well for staining for 2 to 3 minutes, and then, the plate was washed with water and dried at 37° C. Cellular death is induced in the HEF cells infected with VZV, so that plaques of the dead cells are formed in the monolayer of the HEF cells.

HSV-1 strain WT-51 = assay: Cutaneously HSV-1-infected hairless mice model; type: in vivo, hairless mice [HR-1]; settings: oral, methyl cellulose suspension, 10 mg/kg twice daily for 5 days; from AUC of mean composite disease score over 17 days
Procedure: Female hairless mice [HR-1, 7 weeks of age] were infected with a virus suspension containing HSV-1 strain WT-51 (1.5×10^4 PFU/15 μl) on the lateral side of the body, which had scratched with a needle, while anesthetized with diethyl ether, as previously described by H. Machida et al. [Antiviral Res., 1992, 17, 133-143]. Tested compounds were administered orally as a methyl cellulose suspension, except for compounds marked with asterisk which were dissolved in 20% Cremophor EL and 20% polyethylene glycol, starting at 3 hours after the infection, and then at a dose of 10 mg/kg twice daily for a period of 5 days. Hairless mice were inspected daily and disease severity was determined using the following criteria: • Score 0: no signs of infection. • Score 1: localized, barely perceptible small vesicles. • Score 2: slight vesicle spread. • Score 3: large patches of vesicles formed. • Score 4: zosteriform vesicles. • Score 5: large patches of ulcers formed. • Score 6: zosteriform with severe large ulcers. • Score 7: hind limb paralysis or death.
The zosteriform skin lesion and neurological scores for each animal were combined to produce a composite score. The mean composite score was used to represent the disease in each study group. The disease course was measured for 17 days and the extent of the disease was represented by the area under the curve (AUC) of the mean daily composite disease score each day after viral inoculation. The inhibitory activities of tested compounds were calculated using the AUCs.

[1] = Human alphaherpesvirus 1, MRC5, 120 h
[2] = Human alphaherpesvirus 3, read-out: EC50 value (concentration to inhibit 50% of the plaques), plaque count after 3 to 4 days

Cc1cccc(C)c1N(CC(=O)Nc1ccc(-c2cocn2)cc1)C(=O)C1CCS(=O)(=O)CC1 [Example 1, N-(2,6-dimethylphenyl)-N-(2-{[4-(1,3-oxazol-4-yl)phenyl]amino}-2-oxoethyl)tetrahydro-2H-thiopyran-4-carboxamide 1,1-dioxide]
EC50 (HSV-1 (strain KOS); [1]): 75 nM | EC50 (VZV (strain CaQu); [2]): 75 nM

Cc1ccc(N(CC(=O)Nc2ccc(-c3cocn3)cc2)C(=O)C2CCS(=O)(=O)CC2)cc1 [Example 2, N-(4-methylphenyl)-N-(2-{[4-(1,3-oxazol-4-yl)phenyl]amino}-2-oxoethyl)tetrahydro-2H-thiopyran-4-carboxamide 1,1-dioxide]
Inhibitory activity (%) (HSV-1 strain WT-51): 85%

Cc1ccc(N(CC(=O)Nc2ccc(-c3ncon3)cc2)C(=O)C2CCS(=O)(=O)CC2)c(C)c1F [Example 39, N-(3-fluoro-2,4-dimethylphenyl)-N-(2-{[4-(1,2,4-oxadiazol-3-yl)phenyl]amino}-2-oxoethyl)tetrahydro-2H-thiopyran-4-carboxamide 1,1-dioxide]
EC50 (HSV-1 (strain KOS); [1]): 29 nM | EC50 (VZV (strain CaQu); [2]): 82 nM

Cc1cccc(N(CC(=O)Nc2ccc(-c3ncon3)cc2)C(=O)C2CCS(=O)(=O)CC2)c1C [Example 24, N-(2,3-dimethylphenyl)-N-(2-{[4-(1,2,4-oxadiazol-3-yl)phenyl]amino}-2-oxoethyl)tetrahydro-2H-thiopyran-4-carboxamide 1,1-dioxide]
Inhibitory activity (%) (HSV-1 strain WT-51): 69%

O=C(CN(C(=O)C1CCS(=O)(=O)CC1)c1ccc2c(c1)CCC2)Nc1ccc(-c2cocn2)cc1 [Example 11]
Inhibitory activity (%) (HSV-1 strain WT-51): 92% | EC50 (HSV-1 (strain KOS)): 40 nM | EC50 (VZV (strain CaQu); read-out: EC50 value (concentration to inhibit 50% of the plaques), plaque count after 3 to 4 days): 60 nM

Cc1cccc(C)c1N(CC(=O)Nc1ccc(-c2ncon2)cc1)C(=O)C1CCS(=O)(=O)CC1 [Example 27, N-(2,6-dimethylphenyl)-N-(2-{[4-(1,2,4-oxadiazol-3-yl)phenyl]amino}-2-oxoethyl)tetrahydro-2H-thiopyran-4-carboxamide 1,1-dioxide]
Inhibitory activity (%) (HSV-1 strain WT-51): 86% | EC50 (HSV-1 (strain KOS); [1]): 60 nM | EC50 (VZV (strain CaQu); [2]): 100 nM

Cc1cc(N(CC(=O)Nc2ccc(-c3ncon3)cc2)C(=O)C2CCS(=O)(=O)CC2)ccc1Cl [Example 37, N-(4-chloro-3-methylphenyl)-N-(2-{[4-(1,2,4-oxadiazol-3-yl)phenyl]amino}-2-oxoethyl)tetrahydro-2H-thiopyran-4-carboxamide 1,1-dioxide]
EC50 (HSV-1 (strain KOS); [1]): 26 nM | EC50 (VZV (strain CaQu); [2]): 95 nM

Nc1nc2c(ncn2COCCO)c(=O)[nH]1 [acyclovir, reference compound]
EC50 (HSV-1 (strain KOS); [1]): 480 nM | EC50 (VZV (strain CaQu); [2]): 3400 nM

Cc1cc(N(CC(=O)Nc2ccc(-c3cocn3)cc2)C(=O)C2CCS(=O)(=O)CC2)ccc1Cl [Example 13, N-(4-chloro-3-methylphenyl)-N-(2-{[4-(1,3-oxazol-4-yl)phenyl]amino}-2-oxoethyl)tetrahydro-2H-thiopyran-4-carboxamide 1,1-dioxide]
EC50 (HSV-1 (strain KOS); [1]): 6 nM | EC50 (VZV (strain CaQu); [2]): 33 nM
